{"source": "patent US6743775B2", "about": "“Slow release formulations comprising anionic polysaccharide” (Alpenstock Holdings Limited, priority 1998, dated 2004)", "origin": "cited, not measured here", "conditions": "gelatine alone; Schwartz et al., Principles of Surgery 1979", "data": [{"substance": "gelatine", "values": [{"measurement": "haemostatic effect", "result": "only displays a haemostatic effect after an addition of thrombin"}]}]}
